ChEMBL document CHEMBL3774345, “Synthesis of new diarylamides with pyrimidinyl pyridine scaffold and evaluation of their anti-proliferative effect on cancer cell lines” (Bioorg Med Chem Lett, 2016)

Experiments:
[1] = Cytotoxicity against human PC3 cells assessed as growth inhibition at 10 uM after 24 hrs by SRB assay; assay type: functional; conditions: PC-3, 24 h, read-out: GI
[2] = Cytotoxicity against human SKOV3 cells assessed as cell growth at 10^-6 M after 24 hrs by SRB assay; assay type: functional; conditions: SK-OV-3, 24 h, read-out: Activity
[3] = Cytotoxicity against human SF539 cells assessed as cell growth at 10^-7 M after 24 hrs by SRB assay; assay type: functional; conditions: SF-539, 24 h, read-out: Activity
[4] = Cytotoxicity against human MOLT4 cells assessed as cell growth at 10^-5 M after 24 hrs by SRB assay; assay type: functional; conditions: MOLT-4, 24 h, read-out: Activity
[5] = test system: K562; test: Cytotoxicity against human K562 cells assessed as cell growth at 10^-6 M after 24 hrs by SRB assay; assay type: functional; conditions: K562, 24 h, read-out: Activity
[6] = Cytotoxicity against human HL-60(TB) cells assessed as cell growth at 10^-6 M after 24 hrs by SRB assay; assay type: functional; conditions: HL-60, 24 h, read-out: Activity
[7] = test system: 786-0; test: Cytotoxicity against human 786-0 cells assessed as cell growth at 10^-8 M after 24 hrs by SRB assay; assay type: functional; conditions: 786-0, 24 h, read-out: Activity
[8] = test system: NCI-H23; test: Cytotoxicity against human NCI-H23 cells assessed as cell growth at 10^-6 M after 24 hrs by SRB assay; assay type: functional; conditions: NCI-H23, 24 h, read-out: Activity
[9] = test system: NCI-H522; test: Cytotoxicity against human NCI-H522 cells assessed as cell growth at 10^-8 M after 24 hrs by SRB assay; assay type: functional; conditions: NCI-H522, 24 h, read-out: Activity
[10] = Cytotoxicity against human PC3 cells after 24 hrs by SRB assay; assay type: functional; conditions: PC-3, 24 h
[11] = test system: MDA-MB-231; test: Cytotoxicity against human MDA-MB-231 cells assessed as cell growth at 10^-6 M after 24 hrs by SRB assay; assay type: functional; conditions: MDA-MB-231, 24 h, read-out: Activity
[12] = Cytotoxicity against human Caki1 cells after 24 hrs by SRB assay; assay type: functional; conditions: CAKI-1, 24 h
[13] = test system: HT-29; test: Cytotoxicity against human HT-29 cells assessed as cell growth at 10^-8 M after 24 hrs by SRB assay; assay type: functional; conditions: HT-29, 24 h, read-out: Activity
[14] = Cytotoxicity against human LOXIMVI cells assessed as cell growth at 10^-8 M after 24 hrs by SRB assay; assay type: functional; conditions: LOX IMVI, read-out: Activity
[15] = Cytotoxicity against human OVCAR8 cells assessed as cell growth at 10^-7 M after 24 hrs by SRB assay; assay type: functional; conditions: OVCAR-8, 24 h, read-out: Activity
[16] = Cytotoxicity against human HOP92 cells after 24 hrs by SRB assay; assay type: functional, cell-based; conditions: HOP-92, 24 h
[17] = Cytotoxicity against human UO31 cells after 24 hrs by SRB assay; assay type: functional, cell-based; conditions: UO-31, 24 h
[18] = test system: SR; test: Cytotoxicity against human SR cells assessed as cell growth at 10^-5 M after 24 hrs by SRB assay; assay type: functional; conditions: read-out: Activity
[19] = Cytotoxicity against human SKOV3 cells assessed as cell growth at 10^-8 M after 24 hrs by SRB assay; assay type: functional; conditions: SK-OV-3, 24 h, read-out: Activity
[20] = Cytotoxicity against human DU145 cells assessed as cell growth at 10^-7 M after 24 hrs by SRB assay; assay type: functional; conditions: DU-145, 24 h, read-out: Activity
[21] = test system: K562; test: Cytotoxicity against human K562 cells assessed as cell growth at 10^-8 M after 24 hrs by SRB assay; assay type: functional; conditions: K562, 24 h, read-out: Activity
[22] = Cytotoxicity against human OVCAR8 cells after 24 hrs by SRB assay; assay type: functional; conditions: OVCAR-8, 24 h
[23] = Cytotoxicity against human OVCAR3 cells assessed as cell growth at 10^-5 M after 24 hrs by SRB assay; assay type: functional; conditions: OVCAR-3, 24 h, read-out: Activity
[24] = test system: NCI-H522; test: Cytotoxicity against human NCI-H522 cells assessed as cell growth at 10^-4 M after 24 hrs by SRB assay; assay type: functional; conditions: NCI-H522, 24 h, read-out: Activity
[25] = Cytotoxicity against human Hs 578T cells after 24 hrs by SRB assay; assay type: functional
[26] = Cytotoxicity against human HOP62 cells after 24 hrs by SRB assay; assay type: functional; conditions: HOP-62, 24 h
[27] = Cytotoxicity against human Caki1 cells assessed as cell growth at 10^-5 M after 24 hrs by SRB assay; assay type: functional; conditions: CAKI-1, 24 h, read-out: Activity
[28] = test system: ACHN; test: Cytotoxicity against human ACHN cells after 24 hrs by SRB assay; assay type: functional
[29] = test system: K562; test: Cytotoxicity against human K562 cells after 24 hrs by SRB assay; assay type: functional; conditions: K562, 24 h
[30] = Cytotoxicity against human Caki1 cells assessed as cell growth at 10^-6 M after 24 hrs by SRB assay; assay type: functional; conditions: CAKI-1, 24 h, read-out: Activity
[31] = Cytotoxicity against human NCI-ADR-RES cells assessed as cell growth at 10^-6 M after 24 hrs by SRB assay; assay type: functional; conditions: read-out: Activity
[32] = Cytotoxicity against human UACC257 cells assessed as cell growth at 10^-4 M after 24 hrs by SRB assay; assay type: functional; conditions: UACC-257, 24 h, read-out: Activity
[33] = test system: SR; test: Cytotoxicity against human SR cells assessed as growth inhibition at 10 uM after 24 hrs by SRB assay; assay type: functional; conditions: read-out: GI
[34] = read-out: LC50 (the source's name)
[35] = read-out: pLC50 (the source's name) (converted)

## COCCCNc1nc(NC(=O)c2cc(Br)cc(C(F)(F)F)c2)cc(-c2cccnc2)n1
[1]
  inhibition of growth at 10 µM: 29.4%

## O=C(Nc1cc(-c2cccnc2)nc(NCCCN2CCOCC2)n1)c1cc(Br)cc(C(F)(F)F)c1
[2]
  growth at 1 µM: 97%
[3]
  growth at 0.1 µM: 87%
[4]
  growth at 10 µM: 9%
[5]
  growth at 1 µM: 88%
[6]
  growth at 1 µM: 88%
[7]
  growth at 0.01 µM: 93%
[8]
  growth at 1 µM: 89%
[9]
  growth at 0.01 µM: 86%
[10]; read-out: GI50
  GI50: 4.03 µM
[10]; [34]
  CC50: 42.7 µM
[10]; read-out: TGI
  TGI: 15.7 µM
[10]; read-out: pGI50 (converted)
  GI50: 4.07 µM
[10]; [35]
  CC50: 42.7 µM
[10]; read-out: pTGI (converted)
  TGI: 15.8 µM
[11]
  growth at 1 µM: 87%
[12]; read-out: GI50
  GI50: 2.53 µM
[12]; [34]
  CC50: 32.8 µM
[12]; read-out: TGI
  TGI: 10.7 µM
[12]; read-out: pGI50 (converted)
  GI50: 2.51 µM
[12]; [35]
  CC50: 33.1 µM
[12]; read-out: pTGI (converted)
  TGI: 10.7 µM
[13]
  growth at 0.01 µM: 100%
[14]
  growth at 0.01 µM: 93%
[15]
  growth at 0.1 µM: 101%
[16]
  IC50: 1.97 µM
[16]; read-out: GI50
  GI50: 1.97 µM
[16]; [34]
  CC50: 29.9 µM
[16]; read-out: TGI
  TGI: 7.62 µM
[16]; read-out: pGI50 (converted)
  GI50: 1.95 µM
[16]; [35]
  CC50: 30.2 µM
[16]; read-out: pTGI (converted)
  TGI: 7.59 µM
[17]
  IC50: 1.4 µM
[17]; read-out: GI50
  GI50: 1.4 µM
[17]; [34]
  CC50: 8.19 µM
[17]; read-out: TGI
  TGI: 3.39 µM
[17]; read-out: pGI50 (converted)
  GI50: 1.41 µM
[17]; [35]
  CC50: 8.13 µM
[17]; read-out: pTGI (converted)
  TGI: 3.39 µM
[18]
  growth at 10 µM: 1%
[19]
  growth at 0.01 µM: 97%
[20]
  growth at 0.1 µM: 105%
[21]
  growth at 0.01 µM: 107%
[22]; read-out: GI50
  GI50: 2.98 µM
[22]; [34]
  CC50: 39.4 µM
[22]; read-out: TGI
  TGI: 8.59 µM
[22]; read-out: pGI50 (converted)
  GI50: 2.95 µM
[22]; [35]
  CC50: 39.8 µM
[22]; read-out: pTGI (converted)
  TGI: 8.51 µM
[23]
  growth at 10 µM: 12%
[24]
  growth at 100 µM: -82%
[25]; read-out: GI50
  GI50: 2.71 µM
[25]; [34]
  CC50: > 100 µM
[25]; read-out: TGI
  TGI: 8.51 µM
[25]; read-out: pGI50 (converted)
  GI50: 2.69 µM
[25]; [35]
  CC50: 100 µM
[25]; read-out: pTGI (converted)
  TGI: 8.51 µM
[26]; read-out: GI50
  GI50: 2.71 µM
[26]; [34]
  CC50: 32.8 µM
[26]; read-out: TGI
  TGI: 9.98 µM
[26]; read-out: pGI50 (converted)
  GI50: 2.69 µM
[26]; [35]
  CC50: 33.1 µM
[26]; read-out: pTGI (converted)
  TGI: 10 µM
[27]
  growth at 10 µM: 3%
[28]; read-out: GI50
  GI50: 3.04 µM
[28]; [34]
  CC50: 44.6 µM
[28]; read-out: TGI
  TGI: 11.3 µM
[28]; read-out: pGI50 (converted)
  GI50: 3.02 µM
[28]; [35]
  CC50: 44.7 µM
[28]; read-out: pTGI (converted)
  TGI: 11.2 µM
[29]; read-out: GI50
  GI50: 2.81 µM
[29]; [34]
  CC50: > 100 µM
[29]; read-out: TGI
  TGI: 21.7 µM
[29]; read-out: pGI50 (converted)
  GI50: 2.82 µM
[29]; [35]
  CC50: > 100 µM
[29]; read-out: pTGI (converted)
  TGI: 21.9 µM
[30]
  growth at 1 µM: 82%
[31]
  growth at 1 µM: 88%
[32]
  growth at 100 µM: -93%

## COc1cc(OC)cc(C(=O)Nc2cc(-c3cccnc3)nc(NCCCN3CCOCC3)n2)c1
[33]
  inhibition of growth at 10 µM: 42.1%
